From US20170173114A1, “METHODS AND COMPOSITIONS FOR INDUCTION OF UCP1 EXPRESSION” (Joslin Diabetes Center, Inc., priority 2014, published 2017)
Entries after “also recorded” stand apart in the source; their conditions may differ.

Key:
[1] = target: T1, (Mus musculus, UniProt Q923E4); assay: EX 527 effect on FGF6-induced UCP1 and PTGS2 expression in WT-1 preadipocytes; assay type: cell-based, murine; settings: 50 uM pretreatment 3 hours, then EX and FGF6 18 hours
T1 construct: endogenous in cells; host or cells: WT-1 murine brown preadipocytes
T1 sequence (Q923E4 2-737 limits assumed): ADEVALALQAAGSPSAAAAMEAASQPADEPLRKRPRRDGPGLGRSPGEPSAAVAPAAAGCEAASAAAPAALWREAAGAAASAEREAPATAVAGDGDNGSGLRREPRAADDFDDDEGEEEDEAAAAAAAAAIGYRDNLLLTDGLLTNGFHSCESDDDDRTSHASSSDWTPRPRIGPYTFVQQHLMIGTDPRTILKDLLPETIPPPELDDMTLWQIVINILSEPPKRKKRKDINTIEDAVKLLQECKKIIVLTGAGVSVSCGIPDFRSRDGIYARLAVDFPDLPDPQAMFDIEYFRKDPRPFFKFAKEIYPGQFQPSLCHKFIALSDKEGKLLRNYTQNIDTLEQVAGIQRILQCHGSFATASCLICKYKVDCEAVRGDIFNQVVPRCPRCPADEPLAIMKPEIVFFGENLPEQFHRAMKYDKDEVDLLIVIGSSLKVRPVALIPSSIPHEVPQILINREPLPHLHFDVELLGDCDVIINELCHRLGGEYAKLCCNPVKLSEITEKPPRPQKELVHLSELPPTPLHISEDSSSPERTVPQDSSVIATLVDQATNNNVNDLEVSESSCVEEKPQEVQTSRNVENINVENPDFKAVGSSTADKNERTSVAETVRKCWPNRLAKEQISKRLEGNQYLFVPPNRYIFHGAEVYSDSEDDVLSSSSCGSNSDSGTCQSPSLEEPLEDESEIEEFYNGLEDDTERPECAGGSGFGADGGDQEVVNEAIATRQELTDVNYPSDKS
Method: (§1) To determine if the […] pathway is utilized by FGF6 to regulate UCP1 expression and mitochondrial function, WT-1 preadipocytes were pretreated with the […] selective inhibitor EX (EX 527; Santa Cruz Biotechnology) at concentrations of 0 uM or 50 uM in growth media (DMEM+10% FBS) for 3 hours. Following EX treatment, the cells were treated with EX and FGF6 for 18 hours.

[2] = target: T2, Sirt2 (Mus musculus, UniProt Q923E4); assay: as above; assay type: cell-based, murine; settings: 50 uM pretreatment 3 hours, then EX and FGF6 18 hours
T2 construct: endogenous in cells; host or cells: WT-1 murine brown preadipocytes
T2 sequence (Q923E4 2-737 limits assumed): T1 sequence (Q923E4 2-737 limits assumed)
Method: as §1

FGF6-induced PTGS2 expression level [1]: reduced; also recorded: suppression
SMILES: NC(=O)C1CCCc2c1[nH]c1ccc(Cl)cc21 (centres unmarked) [EX]
FGF6-induced UCP1 mRNA expression [2]: inhibited UCP1 expression; also recorded: suppression
